The record followed here is patent publication US20130150317A1, “COMPOUNDS FOR THE TREATMENT OF RENAL CELL CARCINOMA” (Myrovlytis Technology Ventures Limited, priority 2010, published 2013).

The structures appear in SMILES notation. Entries after “also recorded” stand apart in the source; their conditions may differ. Where two headings read alike, the source gives them in different places.

Assay [1] has as its system caspase3/7 activity in UOK257-FLCN^− and UOK257-FLCN^+ cells. As to the kind of experiment: Caspase-Glo 3/7 assay in UOK-257 cells with/without FLCN expression. In kind it is cell-based, human. As to the method:
(§1) The ability to induce caspase 3/7 activation after exposure to compounds was measured by Caspase-Glo 3/7 Assay (Promega, Southampton, United Kingdom) according to manufacturer's instruction. The cells were seeded and dosed as described in growth inhibition assay. At the end of incubation, 70 μl of medium was removed and 30 μl of assay reagent was added to the remaining medium. Additional one hour incubation with shaking was carried out at room temperature. The resultant luminescent light was measured in a Victor X3 Multilabel Plate Reader (PerkinElmer, Beaconsfield, United Kingdom). Cell viability after compound exposure was determined by CellTiter-Blue Cell Viability Assay (Promega, Southampton, the United Kingdom) according to manufacturer's instruction. At the end of drug treatment, 20 μl of reagent was added to the medium in 96 wells and the cells were incubated for additional 4 hours. The cell viability was measured by fluorescence with a 570 nm excitation and 590 nm emission set in a Victor X3 Multilabel Plate Reader (PerkinElmer, Beaconsfield, United Kingdom).
After 48 hrs incubation, with three concentration ranges for each drug, the capase3/7 activity was detected by amount of luminescence for each cell line. The ratio of caspase3/7 activity from UOK257-FLCN^− and UOK257-FLCN^+ were calculated and used as indicators for the ability of the individual compound to induce caspase3/7 activity to FLCN mutant cells.
These ratios were calculated and used as indicators for the sensitivity to mutant FLCN cells.

Assay [2] has as its system UOK257-FLCN^− and UOK257-FLCN^+ cells. Description: CellTiter-Blue cell viability assay in UOK-257 cells with/without FLCN expression. It counts as cell-based, human. The conditions noted are these: 200 nM, 48 hrs. The method, then: as §1
These were calculated and used as indicators for the sensitivity to mutant FLCN cells. Cells were exposed continuously to the indicated concentrations of drugs for 48 hours. Values are the mean±SD from at least three experiments.
In general terms: The colour change of resazurin is a common sign of viable cells or microbes.

The subject of assay [3] is caspase3 in UOK257-FLCN^− cells. As to the kind of experiment: Western blot of cellular caspase3 protein after mithramycin. It counts as cell-based, human. Particulars: mithramycin 25, 50, 100, 200 nM, 48 hours. The method, then:
Cellular protein expression in UOK Cells with/without FLCN expression in response to drug exposure was determined using total cell extracts at 48 h after treatment, according to standard procedures. Protein concentration was determined using DC protein assay kit according to the manufacturer's instructions (Bio-Rad Laboratories Ltd, Hertfordshire, United Kingdom). Twenty […] of protein from each sample was electrophoresed on 12.5% (w/v) SDS-PAGE gels and electroblotted on to nitrocellulose membrane (Amersham Pharmacia Biotech UK Ltd., Buckinghamshire, United Kingdom). Antibody against FLCN (a gift from Prof. Arnim Pause, Rosalind and Morris Goodman Cancer Centre Montreal, Canada), caspase3 (Cell Signalling Technology, Hertfordshire, United Kingdom), and actin (Sigma-Aldrich Company Ltd., Dorset, United Kingdom) were used. The signal was detected using the enhanced chemiluminescence (ECL+Plus, Amersham) system after addition of anti-mouse IgG-HRP conjugate (DAKO, Ely, United Kingdom).
In general terms: Immunoblotting shows a protein as a band on a membrane.

The next assay has as its system UOK257-FLCN^− cells. Particulars: 4×GI50 mithramycin alone.

As for `CO[C@H](C(=O)[C@@H](O)[C@@H](C)O)C1Cc2cc3cc(OC4CC(OC5CC(O)C(O)C(C)O5)C(O)C(C)O4)c(C)c(O)c3c(O)c2C(=O)[C@H]1OC1CC(OC2CC(OC3CC(C)(O)C(O)C(C)O3)C(O)C(C)O2)C(O)C(C)O1` (some centres unmarked) [mithramycin, Mithramycin], the “induction of caspase 3/7 activity, FLCN-null versus FLCN-wild type cells (in words)” value in assay [1] is given as “preferentially induced caspase 3/7 activity in UOK257 FLCN-null cells in a dose dependent manner; also recorded: Differential ability to induce caspase 3/7 activity”; in assay [1] (listed as Mithramycin) it was “preferentially induces caspase 3/7 activity in FLCN-null cells in a dose dependent manner”. The “ratio of cell viability from UOK257-FLCN^+ and UOK257-FLCN^− (cell death)” value in assay [2] turned out to be 2 fold. Besides, the “active forms of cleaved caspase3 (Western blot)” value in assay [3] was “found at 100 and 200 nM, but not in low concentrations of mithramycin (25 and 50 nM)”. The “lengthening of the S and G2-M time” value in the assay on UOK257-FLCN^− cells was 100%.
